Legend:
[1] = biological target: T1, α-synuclein aggregates (Mus musculus, UniProt O55042); experiment: In vivo PET imaging of mouse brain (α-synuclein fibril-inoculated mouse vs physiological saline-injected mouse); details: intravenous injection of 18F-labeled compound, 90 minutes scan
T1 construct: from tissue; host or cells: brain of C57/BL/6 mouse inoculated in the striatum with recombinant (E. coli) mouse α-synuclein fibrils; sections or living animal
Procedure: (§1) First, mouse α-synuclein was expressed in and extracted from E. coli as a recombinant protein, and then incubated in vitro to form insoluble α-synuclein aggregates. The α-synuclein aggregates were then inoculated into the striatum of a mouse. […] Note that the inoculation of the α-synuclein aggregates into the striatum of the mouse was carried out in the following manner. First, hair on the head of a 9-week-old C57/BL/6 male mouse which had been anesthetized with 1.5% (v/v) isoflurane was removed, and the scalp was disinfected with isodine, followed by application of xylocaine and incision in the scalp to expose the skull. Then, a hole was drilled in the skull at a position of 0.05 mm posterior to the bregma and 2 mm lateral to the midline, and 3 μl of an α-synuclein fibril solution (mouse α-synuclein fibril (4 mg/ml) in saline) was injected into a position […] ventral to the brain surface with use of a glass pipette. The scalp was then returned and sutured.
PET scanning was carried out with use of a micro PET Focus 220 animal scanner (Siemens Medical Solutions), which provided 95 slices each having a thickness of 0.851 mm (center thickness), a […]. Before the scanning, an α-synuclein fibril-inoculated mouse and a physiological saline-injected mouse (control) were each anesthetized with 1.5% (v/v) isoflurane. […]

[2] = biological target: T2, α-synuclein lesion (Mus musculus, UniProt O55042); experiment: In vivo two-photon laser scanning fluorescence microscopy of α-synuclein fibril-inoculated model mouse; details: 50 μl DMSO solution containing 0.1% compound, i.p.
T2 construct: from tissue; host or cells: brain of C57/BL/6 mouse inoculated in the striatum with recombinant (E. coli) mouse α-synuclein fibrils; sections or living animal
Procedure: as §1
A model mouse was anesthetized with 1.5% (v/v) isoflurane 6 or more weeks after inoculation of an α-synuclein fibril solution. Then, a cranial window was placed on the model mouse in accordance with the Seylaz-Tomita method (Tomita et al. J Cereb Blood Flow Metab 25, 858-67, 2005). Two or more weeks after the placement of the cranial window, the mouse was anesthetized with 1.5% (v/v) isoflurane, and then 50 μl of a DMSO solution containing 0.1% BF-227, PBB3, SPAL-T-05, or SPAL-T-06 was intraperitoneally administered to the mouse. Thirty minutes after the administration, the mouse was fixed under a two-photon laser fluorescence microscope, 100 μl of physiological saline containing 5 mM Sulforhodamine 101 was intraperitoneally administered to the mouse, and then intravital two-photon fluorescence imaging was carried out at an excitation wavelength of 900 nm. Detection wavelengths for BF-227, PBB3, SPAL-T-05, and SPAL-T-06 were set at 500 nm to 550 nm, and a detection wavelength for Sulforhodamine 101 was set at 573 nm to 648 nm. In FIG. 4, each arrowhead indicates a blood vessel, and each arrow indicates fluorescence from the compound binding to an α-synuclein lesion.

[3] = biological target: T3, α-synuclein lesions (Homo sapiens, UniProt P37840); experiment: In vitro fluorescence microscope measurement of the sections subjected to autoradiography (DLB, MSA); details: 30 μM, 50% ethanol, 30 minutes
T3 construct: α-synuclein aggregates formed in the brain of the DLB patient; from tissue; host or cells: post-mortem human brain: amygdala of DLB patient (sections or homogenate); cerebellum of MSA patient
Procedure: The section that had been subjected to the autoradiography was analyzed by fluorescent staining. Specifically, the section and 30 μM SPAL-T-06 were incubated in a 50% ethanol solution at room temperature for 30 minutes. Thereafter, the section was washed with a 50% ethanol solution for 5 minutes and with ultrapure water for 3 minutes. This washing was carried out twice. After the section was mounted in a mounting medium (VECTASHIELD H-1000), an image of an α-synuclein aggregate-enriched area on the section was obtained with use of a fluorescence microscope (DM4000 (excitation wavelength: 391 nm to 437 nm)). An adjacent brain section was also washed with a phosphate buffer solution, and then treated in an autoclave for antigen retrieval. After the section was subjected to immunohistochemical staining with an anti-phosphorylated α-synuclein monoclonal antibody (pS129, abcam, ab59264) (1:1000) and then mounted in a mounting medium (VECTASHIELD H-1000), images were obtained with use of fluorescence microscopes (BZ-X710, KEYENCE (excitation wavelength: 450 nm to 490 nm) and DM4000 (excitation wavelength: 460 nm to 500 nm)).

detection of / binding to α-synuclein lesions in living mouse brain (two-photon fluorescence) ([2]; excitation 900 nm): bound to α-synuclein lesions
binding to α-synuclein lesions in DLB and MSA brain sections (fluorescent staining) [3]: bound to α-synuclein lesions
Compound: CNc1cnc(C#C/C=C/c2nc3ccc(OCC(O)CF)cc3s2)cn1 (stereo not shown) [SPAL-T-06, (E)-1-fluoro-3-((2-(4-(5-(methylamino)pyrazin-2-yl)but-1-en-3-yn-1-yl)benzo[d]thiazol-6-yl)oxy)propan-2-ol]
brain-entering property / clearance rate from the brain (PET) [1]: adequate brain-entering property or an adequate clearance rate from the brains
delivery into the brain after intraperitoneal administration ([2]; imaging 30 minutes after administration): delivered into the brain and further into neurons of the living body

Source: patent US12630544B2, “Compound, α-synuclein aggregate binder, and use thereof” (NATIONAL INSTITUTES FOR QUANTUM SCIENCE AND TECHNOLOGY, priority 2020, dated 2026)
